1 compound from US11033572B2, “Molecular adjuvants for enhanced cytosolic delivery of active agents” (Universiteit Gent, priority 2017, dated 2021) can be followed below.

Common to all, as to assay type: cell-based
Series [1] concerns H1299_eGFP cells. In words: Side scatter (cellular granularity) by flow cytometry. The protocol:
For silencing experiments, H1299_eGFP cells were seeded in 24 well plates at a density of 35000 cells/well and were allowed to settle overnight. Subsequently, the cells were transfected and treated with small molecular adjuvants as described previously. Note that for every siEGFP or siPLK1 condition an siCTRL sample was included to account for potential off target effects. SiNG-mediated eGFP silencing was determined by flow cytometry. […] The cells were collected, centrifuged during 5 minutes at 300 g, resuspended in 300 μL flow buffer and kept on ice until analysis. For each sample the forward and side scatter as well as the green fluorescent signal were measured for at least 5000 cells.
Background: In flow cytometry, cells or beads pass a laser one at a time.

For series [2], the system named is H1299_eGFP cells. In words: siPLK1-NG silencing evaluated through cell viability (CellTiter GLO). As for the experimental part:
The silencing potential of siPLK1-NGs was established through evaluating the cell viability. Hereto, we applied the CellTiter GLO® assay (Promega, Belgium) according to the manufacturer's guidelines. Before initiating the assay, the culture plates and reconstituted assay buffer were placed at room temperature for 30 minutes. Next, the culture medium was replaced by 250 μL fresh cell medium and an equal volume of assay buffer was added. To induce complete cell lysis, the plates were shaken during 2 minutes and the signal was allowed to stabilize the following 10 minutes. 100 μL from each well was subsequently transferred to an opaque 96-well plate, which was measured with a GloMax® 96 Microplate Luminometer (Promega, Belgium). Three biological replicates were performed and data are expressed as the mean cell viability±SEM.
All previous experiments were performed on the eGFP reporter gene. To evaluate whether our approach also works in a therapeutic setting we applied siRNA against Polo Like Kinase 1 (PLK1). […] To evaluate the PLK1 silencing we evaluated the effect on cell viability since both induction of cell cycle arrest or apoptosis would reduce the number of cells present compared to the untreated control.
For orientation: Cellular ATP, detected with luciferase, serves as a proxy for viable cell number.

Series [3] has as its system H1299_WT cells. The series can be described thus: Release of NG-delivered labeled oligonucleotides into the cytosol (positive nuclei). To be noted: 40 μM, 20 h, after NG transfection; listed as DL. The protocol: To visualize the FITC-dextran release, a 1 mg/mL dispersion of 10 kDa FITC-dextrans (Sigma-Aldrich, Belgium) in complete cell medium was added during 1 hour at 37° C. in a humidified atmosphere containing 5% CO2. To assess oligonucleotide escape, the NGs were first loaded with 100 nM Alexa Fluor 647-labeled oligonucleotides (21-mer) (Eurogentec, Belgium) according to the procedure described for siRNA complexation. Of note, these oligonucleotides transfer to the nucleus upon release into the cytosol (Rehman et al., ACS Nano, 2013). Following four hours of NG transfection or 1 h incubation with FITC-dextrans, the cells were washed with PBS and received 1.5 mL fresh cell medium with or without 10, 20 or 40 μM DL. After an additional incubation period of 20 hours, the cell medium was removed and nuclei were labeled with Hoechst (Molecular Probes™, Belgium) in cell medium during 15 minutes at 37° C. […]
The samples were imaged using a laser scanning confocal microscope (LSCM, C1si, Nikon) and a 60× oil immersion Plan Apo objective (Nikon, Belgium). […] During data analysis with the ImageJ image processing software (NIH) both the total cell number and amount of cells with a diffuse FITC-dextran labeling or oligonucleotide-positive nuclei were counted. […]

Series [4] concerns H1299_WT cells. In words: Phospholipidosis detection with LipidTOX Red. To be noted: 20 h incubation. The protocol:
H1299_WT cells were seeded and allowed to settle overnight as detailed previously. Next, the cells were incubated with a mixture of a 1/1000 dilution of the LipidTOX™ red phospholipidosis detection reagent (Thermo Fisher Scientific, USA) and the desired CAD in complete cell medium. Upon 20 hour incubation, the cells were fixed with 4% PFA and stored at 4° C. covered in Vectashield antifade mounting medium containing DAPI. Imaging occurred with a LSCM and a 100× oil immersion objective. DAPI and the LipidTOX™ red phospholipidosis dye were respectively excited with the 408 nm and 561 nm laser lines and the signal intensity was determined with Image J in minimum 30 cells from 5 images per condition.

For orientation: cell viability means a read-out of living cells in per cent, often relative to untreated cells. The low end stands for a greater loss of cells, the high end for better survival. For orientation: viability means a read-out of living cells in per cent, often relative to untreated cells. A higher viability goes with less harm to the cells.

In the case of `Clc1ccc2c(c1)CCc1cccnc1C2=C1CCNCC1` [(3) Desloratadine, Desloratadine], the “cellular granularity (SSC) at eGFP readout” value in the series with H1299_eGFP cells [1] (40 μM, 2 h incubation) is given as “significant though minor augmentation”. In the series on H1299_eGFP cells [1] (siNG transfection then 40 μM), the “increase in SSC signal” value is on record as 1.8 fold. In the series on H1299_eGFP cells [2] (1 nM siPLK1-NG, second 40 μM treatment), this compound gave a cell viability of around 50%. The compound also displayed a viability at 40 µM with H1299_eGFP cells [2] (1 nM siPLK1-NG, single 40 μM treatment, 2 h) of around 60%. Further, in the series with H1299_eGFP cells [2] (10 nM siPLK1-NG, single 2-hour treatment), the “effect on cell viability reduction” value is listed as “maximal effect on cell viability reduction”. This compound also showed an Oligonucleotide positive nuclei in the series on H1299_WT cells [3] of 30%. Further, in the series with H1299_WT cells [4], the “LipidTOX Red phospholipid signal” value is recorded as “upregulates the presence of phospholipids in a concentration dependent fashion”.
